Measured values as given in patent US6391614B1, “Auxiliary gene and protein of methicillin resistant bacteria and antagonists thereof” (priority 1995, dated 2002).
In brackets after ≈: the same amount, converted by molar mass. Read-outs that look alike come from different tables or passages of the source.

Key:
[1] = tested on: SWTD3 (RUSA315/pGCSW-3); experiment: Standard disk susceptibility, transductant SWTD3; format: cell-based, Staphylococcus aureus; settings: SWTD3 versus recipient RUSA315; FIG. 5
Description: (§1) Susceptibility testing and population analysis. One colony of bacterial strain was inoculated into 5 ml of TSB (tryptic soy broth, Difco Laboratories) and incubated at 37° C. with 200 rpm rotation for overnight. Culture density (OD600) was adjusted to give a viable titer of 10^8 to 10^9 cfu/ml. Sterile swabs were dipped into the bacterial suspension and applied to TSA (tryptic soy agar, Difco Laboratories) plates without antibiotics, and 6-mm-diameter disks containing antibiotics were applied to the plates with a disk dispenser (BBL, Beckton-Dickinson and Company). The antibiotics used were as follows: […] of methicillin, 10 U of penicillin, 30 μg of cefazolin, 20 μg of ampicillin/sulbactam, 15 μg of erythromycin, 10 μg of gentamicin, 30 μg of tetracycline, 30 μg chloramphenicol, 5 μg of rifampin, and 5 μg of ciproflaxin (BBL, Becton Dickinson and Company). Diameters of inhibition zones were read after incubation at 37° C. for 24 h. To perform population analysis, aliquots of overnight cultures were spread onto TSA plates containing increasing concentrations of methicillin. CFU were determined after 48 h of incubation at 37° C. [de Lencastre et al., Antimicrob Agents Chemother. 35:632-639 (1991)].
(§2) Complementation analysis with plasmid pGCSW-3. Plasmid pGCSW-3 was transformed into S. aureus RN4220 (r-) by electroporation and the electro-transformant SWET3 was used as donor to introduce pGCSW-3 into recipients RUSA315 and RUSA12F.

[2] = tested on: SWTD5 (RUSA12F/pGCSW-3); experiment: Standard disk susceptibility, transductant SWTD5; format: cell-based, Staphylococcus aureus; settings: SWTD5 versus recipient RUSA12F; FIG. 5
Description: as §1, §2

[3] = tested on: Tn551 insertional (auxiliary) mutants; experiment: Methicillin MIC, Tn551 auxiliary mutants with intact mecA; format: cell-based; settings: Staphylococcus aureus, read-out: methicillin MIC
[4] = tested on: staphylococci without the mecA gene; settings: bacteria without mecA; cited from earlier work
[5] = tested on: strain COL; settings: peptidoglycan composition; cited from earlier work
[6] = tested on: mutant RUSA315 (femR315::Tn551); experiment: Methicillin MIC, Tn551 insertional mutant RUSA315; format: cell-based; settings: Staphylococcus aureus
Description: as §1

[7] = tested on: Tn551 insertional (auxiliary) mutants; settings: cited from earlier work
[8] = tested on: four staphylococcal PBPs; settings: in vitro; cited from earlier work
[9] = tested on: mecA Tn551 transposon mutant; settings: Tn551 inserted into mecA; cited from earlier work
[10] = tested on: MRSA strain COL; experiment: Methicillin MIC, parental highly methicillin resistant strain COL; format: cell-based, Staphylococcus aureus
Description: as §1

[11] = tested on: SWTD3 (RUSA315/pGCSW-3); experiment: Population analysis on methicillin-containing TSA plates, SWTD3; format: cell-based, Staphylococcus aureus; settings: SWTD3, data not shown
Description: as §1

[12] = tested on: MRSA strain COL; settings: cited from earlier work

With `Cc1nnc(SCC2=C(C(=O)O)N3C(=O)[C@@H](NC(=O)Cn4cnnn4)[C@H]3SC2)s1` [cefazoline, cefazolin] the “antimicrobial susceptibility (disk, inhibition zone)” value [1] was “restored resistance” and the “antimicrobial susceptibility (disk, inhibition zone)” value [2] was “restored resistance”.

For `COc1cccc(OC)c1C(=O)N[C@@H]1C(=O)N2[C@@H]1SC(C)(C)[C@@H]2C(=O)O` [methicillin], the MIC [3] is given as 1.5 to 200 µg/mL (≈ 3.94 to 526 µM), the “methicillin MIC” value [4] is given as 1 to 2 µg/mL and the “critical concentration at which a new cell wall synthetic machinery, presumably PBP2A, takes over” value [5] is given as “about 5 mg/L”. For the same compound, the MIC [6] was 12 to 25 µg/mL (≈ 31.5 to 65.7 µM), the MIC ([6]; RUSA315, Tn551 insert Ω720, read-out: methicillin MIC) was 1.5 µg/mL (≈ 3.94 µM) and the “methicillin MIC” value ([7]; Tn551 mutants still producing normal amounts of PBP2A) was 3 µg/mL. The MIC ([7]; inactivation of auxiliary genes, PBP2A present) was 3 mg methicillin per liter, the “methicillin concentration range within which all four normal PBPs become fully acylated” value [8] was 5 to 10 mg/L and the “antimicrobial susceptibility (disk, inhibition zone)” value [1] was “restored resistance”. For the same compound, the MIC [9] was “about 4 μg/ml”, the “antimicrobial susceptibility (disk, inhibition zone)” value [2] was “restored resistance” and the MIC ([10]; Staphylococcus aureus, MRSA, read-out: methicillin MIC) was 1600 µg/mL (≈ 4210 µM). For the same compound, the “methicillin MIC” value ([10]; parental MRSA strain COL) was 1600 µg/mL, the “level of methicillin resistance by population analysis” value [11] was “same level of methicillin resistance as the parental Mc^r strain COL” and the “methicillin MIC” value ([12]; highly resistant strain COL) was 1600 µg/mL. For the same compound, the MIC ([12]; parental bacterium before Tn551 inactivation) was 1600 µg/mL (≈ 4210 µM).

In the case of “ampicillin/sulbactam [ampicillinisulbactam]”, the “antimicrobial susceptibility (disk, inhibition zone)” value [1] is reported as “restored resistance” and the “antimicrobial susceptibility (disk, inhibition zone)” value [2] is reported as “restored resistance”.

For penicillin, the “antimicrobial susceptibility (disk, inhibition zone)” value [1] was “restored resistance” and the “antimicrobial susceptibility (disk, inhibition zone)” value [2] was “restored resistance”.
